pKd: −log10 of the molar value. Counter-ions that a name gives are not always drawn.
What was measured:
[1] = molecular target: Beta-3 adrenergic receptor (Homo sapiens, UniProt P13945); experiment: 3H-CGP 12177 Whole Cell Binding Assay
Excerpt: (§1) The whole cell-binding studies were undertaken in CHO cell lines stably expressing each beta-adrenoceptor subtype.

[2] = molecular target: Beta-1 adrenergic receptor (Homo sapiens, UniProt P08588); experiment: 3H-CGP 12177 Whole Cell Binding Assay; details: pH 7.4; 37 °C
Chain of Beta-1 adrenergic receptor (P08588 whole entry): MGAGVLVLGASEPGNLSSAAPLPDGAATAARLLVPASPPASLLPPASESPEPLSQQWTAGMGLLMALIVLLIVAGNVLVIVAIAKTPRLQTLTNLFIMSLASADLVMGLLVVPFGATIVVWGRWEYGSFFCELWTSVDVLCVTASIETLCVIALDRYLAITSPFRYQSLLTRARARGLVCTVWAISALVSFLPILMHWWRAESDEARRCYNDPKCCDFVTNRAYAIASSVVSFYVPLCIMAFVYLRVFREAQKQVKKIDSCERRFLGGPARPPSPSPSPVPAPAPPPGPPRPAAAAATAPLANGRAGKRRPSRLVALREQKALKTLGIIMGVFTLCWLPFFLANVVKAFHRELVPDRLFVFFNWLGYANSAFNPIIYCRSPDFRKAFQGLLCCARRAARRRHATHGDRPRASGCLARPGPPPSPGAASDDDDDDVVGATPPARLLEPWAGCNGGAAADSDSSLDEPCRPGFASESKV
Excerpt: as §1

Chain of Beta-3 adrenergic receptor (P13945 whole entry): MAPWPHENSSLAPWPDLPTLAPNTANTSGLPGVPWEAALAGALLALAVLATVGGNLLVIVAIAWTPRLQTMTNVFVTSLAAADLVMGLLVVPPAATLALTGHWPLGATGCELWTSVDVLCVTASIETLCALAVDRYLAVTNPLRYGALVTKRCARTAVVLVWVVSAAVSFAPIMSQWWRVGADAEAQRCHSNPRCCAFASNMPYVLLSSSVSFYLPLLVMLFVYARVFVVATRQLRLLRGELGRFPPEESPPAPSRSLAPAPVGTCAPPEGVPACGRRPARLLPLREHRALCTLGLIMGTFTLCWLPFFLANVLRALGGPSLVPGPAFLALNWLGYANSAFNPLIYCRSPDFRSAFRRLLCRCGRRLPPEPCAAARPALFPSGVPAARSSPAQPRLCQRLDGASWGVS

Row | SMILES | pKd [1] | pKd [2]
1 | CC(C)NCC(O)c1ccc2ccccc2c1 (stereo unspecified) [1-(naphthalen-2-yl)-2-(propan-2-ylamino)ethan-1-ol] | 5.89 | 6.44
2 | O=C(O)COc1ccc(OCCNC[C@@H](O)COc2ccccc2)cc1 [2-[4-(2-{[(2R)-2-hydroxy-3-phenoxypropyl]amino}ethoxy)phenoxy]acetic acid] | 6.63 | –
3 | CC(C)(C)NCC(O)COc1cccc2[nH]c(=O)[nH]c12 (stereo unspecified) [4-[3-(tert-butylamino)-2-hydroxypropoxy]-2,3-dihydro-1H-1,3-benzodiazol-2-one hydrochloride] | 6.99 | –
4 | CC(C)NC[C@H](O)COc1ccc(CCOCC2CC2)cc1 [[(2S)-3-{4-[2-(cyclopropylmethoxy)ethyl]phenoxy}-2-hydroxypropyl](propan-2-yl)amine] | 5.97 | –
5 | OCc1cc(C(O)CNCCCCCCOCCCCc2ccccc2)ccc1O (stereo unspecified) [salmeterol xinafoate] | 5.73 | –

More lines, now with the values ahead:

Row | pKd [1] | pKd [2] | SMILES
6 | 6.80 | – | CC(C)(C)NC[C@H](O)COc1nsnc1N1CCOCC1 (racemic) [tert-butyl(2-hydroxy-3-{[4-(morpholin-4-yl)-1,2,5-thiadiazol-3-yl]oxy}propyl)amine]
7 | 6.18 | 7.23 | CC(C)(C)NCC(O)COc1cccc2c1C[C@H](O)[C@H](O)C2 (stereo partly specified) [Corgard]
8 | 7.04 | 8.51 | Cc1ccc(Cl)c(OCC(O)CNC(C)(C)C)c1 (stereo unspecified) [tert-butyl[3-(2-chloro-5-methylphenoxy)-2-hydroxypropyl]amine]

Source: BindingDB's records for doi:10.1038/sj.bjp.0706048 (University of Nottingham, 2005)
